Data reported in patent publication US8044053B2, “Sulfonamide substituted pyrazoline compounds, their preparation and use as CB1 modulators” (Laboratories del Dr. Esteve, S.A., priority 2006, dated 2011).
pIC50, pKi: −log10 of the molar value.

Tests used:
CB1-receptor [1] = target: CB1-receptor (UniProt P20272); test: In-vitro determination of affinity (binding) to CB1-receptors, radioligand [3H]-CP55940; design: % inh; 10^−7 M; compound at 10^−7 M; species or system human or rat; details: compound at 10^−7 M
Method: (§1) I. In-Vitro Determination of Affinity to CB1/CB2-Receptors
(§2) The in-vitro determination of the affinity of the inventive substituted pyrazoline compounds to CB1/CB2-Rezeptors is carried out as described in the publication of Ruth A. Ross, Heather C. Brockie et al., “Agonist-inverse agonist characterisation at CB1 and CB2 cannabinoid receptors of L-759633, L759656 and AM630”, British Journal of Pharmacology, 126, 665-672, (1999), whereby the transfected human CB1 and CB2 receptors of Receptor Biology, Inc. are used. The radioligand used for both receptors is [^3H]-CP55940. The respective parts of the description is hereby incorporated by reference and forms part of the present disclosure.
(§3) Rat Cerebellum CB1 Binding
(§4) Binding affinity to CB1 receptor was evaluated according to a modification of the method described by Govaerts et al., Eur J Pharmac Sci 23, 233-243 (2004). The respective parts of the description is hereby incorporated by reference and forms part of the present disclosure.
(§5) Briefly, cerebellum from male wistar rats (250-300 g) were carefully dissected on ice and homogenates were prepared with Potter-Helveheim in a cold 50 mM Tris-HCl solution containing 5 mM MgCl2, 1 mM EDTA and 0.25 M sucrose, pH 7.4. The suspension was centrifuged at 1,000×g for 5 minutes. The supernatants were collected and centrifuged 50,000×g for 15 minutes. The resulting pellets were then resuspended in Tris-HCl buffer without sucrose, homogenised and incubated for 15 min at 37° C. in an orbital shaker bath and centrifuged again at 50,000×g for 15 min. Pellets were weighted, resuspended in Tris-HCl buffer without sucrose, homogenised with Ultraturrax at 13,500 rpm for 3×5 seconds and alicuoted in 0.9 ml volumes in Eppendorf tubes. Alicuotes were centrifuged at 20,800×g for 5 minutes, supernatants discarded and pellets were frozen at −80° C. until use. Total protein concentration was determined using the Bio-Rad Lowry method based kit. Competitive binding experiments were performed in presence of 1 nM [^3H]-CP 55,940 in siliconised glass tubes containing 100 μg protein/tube resuspended in 1 ml final volume of 50 mM Tris-HCl, 5 mM MgCl2, 1 mM EDTA, 0.5% (w/v) bovine serum albumin, pH 7.4. Compounds were present at various concentrations and the non specific binding was determined in the presence of 10 μM HU-210. After 1 hour incubation at 30° C., the suspension was rapidly filtered through 0.5% PEI pre-treated GF/B fiber filters on a 96-well harvester and washed 3 times with 3 ml ice-cold binding buffer without bovine serum albumin. Radioactivity on filters was measured with Wallac Winspectral 1414 counter by liquid scintillation in 6 ml Ecoscint H (National Diagnostics, U.K.). Assays were made in triplicates.
(§6) Binding data were analysed by non-linear regression with the software GraphPad Prism Version 3.03.
(§7) The binding of the pyrazoline compounds of general formulae I, Ia and Ib to CB1-receptors was determined according to the method described in the section Pharmacological Methods, Part I.

CB1-receptor [2] = target: CB1-receptor (UniProt P20272); test: as above; design: IC50; Ki; species or system human or rat; details: Pharmacological Methods Part I
Method: as §1, §2, §3, §4, §5, §6, §7

% inh. 10^−7 M (CB1-receptor [1]) [%] | pIC50 (CB1-receptor [2]) | pKi (CB1-receptor [2]) | SMILES
51.9 | 7.01 | 7.36 | Cc1cc(C)c(S(=O)(=O)NCC2=NN(c3ccc(Cl)cc3Cl)C(c3ccc(Cl)cc3)C2)c(C)c1 (stereo not drawn) [Example 40, N-[5-(4-Chloro-phenyl)-1-(2,4-dichloro-phenyl)-4,5-dihydro-1H-pyrazol-3-ylmethyl]-2,4,6-trimethyl-benzenesulfonamide]
20.0 | 6.92 | – | O=S(=O)(NCC1=NN(c2ccc(Cl)cc2Cl)C(c2ccc(Cl)cc2)C1)C1=C(Cl)NC2SC=CN12 (stereo not drawn) [Example 32, 6-Chloro-7,7a-dihydro-imidazo[2,1-b]thiazole-5-sulfonic acid [5-(4-chloro-phenyl)-1-(2,4-dichloro-phenyl)-4,5-dihydro-1H-pyrazol-3-ylmethyl]-amide]
88.0 | – | – | O=S(=O)(NCC1=NN(c2ccc(Cl)cc2Cl)C(c2ccc(Cl)cc2)C1)c1ccc(OC(F)(F)F)cc1 (stereo not drawn) [Example 16, N-[5-(4-Chloro-phenyl)-1-(2,4-dichloro-phenyl)-4,5-dihydro-1H-pyrazol-3-ylmethyl]-4-trifluoromethoxy-benzenesulfonamide]
39.4 | 6.89 | – | O=S(=O)(Cc1ccccc1)NCC1=NN(c2ccc(Cl)cc2Cl)C(c2ccc(Cl)cc2)C1 (stereo not drawn) [Example 12, N-[5-(4-Chloro-phenyl)-1-(2,4-dichloro-phenyl)-4,5-dihydro-1H-pyrazol-3-ylmethyl]-C-phenyl-methanesulfonamide]
76.6 | 6.34 | – | CCS(=O)(=O)NCC1=NN(c2ccc(Cl)cc2Cl)C(c2ccc(Cl)cc2)C1 (stereo not drawn) [Example 14, Ethanesulfonic acid [5-(4-chloro-phenyl)-1-(2,4-dichloro-phenyl)-4,5-dihydro-1H-pyrazol-3-ylmethyl]-amide]
53.8 | 7.85 | – | Cc1cccc(Cl)c1S(=O)(=O)NCC1=NN(c2ccc(Cl)cc2Cl)C(c2ccc(Cl)cc2)C1 (stereo not drawn) [Example 34, 2-Chloro-N-[5-(4-chloro-phenyl)-1-(2,4-dichloro-phenyl)-4,5-dihydro-1H-pyrazol-3-ylmethyl]-6-methyl-benzenesulfonamide]
26.5 | – | – | COc1cc(C)ccc1S(=O)(=O)NCC1=NN(c2ccc(Cl)cc2Cl)C(c2ccc(Cl)cc2)C1 (stereo not drawn) [Example 36, N-[5-(4-Chloro-phenyl)-1-(2,4-dichloro-phenyl)-4,5-dihydro-1H-pyrazol-3-ylmethyl]-2-methoxy-4-methyl-benzenesulfonamide]
27.2 | – | – | CCCCS(=O)(=O)NCC1=NN(c2ccc(Cl)cc2Cl)C(c2ccc(Cl)cc2)C1 (stereo not drawn) [Example 20, Butane-1-sulfonic acid [5-(4-chloro-phenyl)-1-(2,4-dichloro-phenyl)-4,5-dihydro-1H-pyrazol-3-ylmethyl]-amide]
8.5 | – | – | COC(=O)CCc1ccc(S(=O)(=O)NCC2=NN(c3ccc(Cl)cc3Cl)C(c3ccc(Cl)cc3)C2)cc1 (stereo not drawn) [Example 35, 3-(4-{[5-(4-Chloro-phenyl)-1-(2,4-dichloro-phenyl)-4,5-dihydro-1H-pyrazol-3-ylmethyl]-sulfamoyl}-phenyl)-propionic acid methyl ester]
26.7 | – | – | CCc1ccc(S(=O)(=O)NCC2=NN(c3ccc(Cl)cc3Cl)C(c3ccc(Cl)cc3)C2)cc1 (stereo not drawn) [Example 43, N-[5-(4-Chloro-phenyl)-1-(2,4-dichloro-phenyl)-4,5-dihydro-1H-pyrazol-3-ylmethyl]-4-ethyl-benzenesulfonamide]
27.2 | – | – | O=S(=O)(NCC1=NN(c2ccc(Cl)cc2Cl)C(c2ccc(Cl)cc2)C1)c1csc2ccccc12 (stereo not drawn) [Example 37, Benzo[b]thiophene-3-sulfonic acid [5-(4-chloro-phenyl)-1-(2,4-dichloro-phenyl)-4,5-dihydro-1H-pyrazol-3-ylmethyl]-amide]
– | 7.55 | 7.92 | O=S(=O)(NCC1=NN(c2ccc(Cl)cc2Cl)[C@@H](c2ccc(Cl)cc2)C1)c1cc(Cl)ccc1F [Example 106, (R)-5-Chloro-N-[5-(4-chloro-phenyl)-1-(2,4-dichloro-phenyl)-4,5-dihydro-1H-pyrazol-3-ylmethyl]-2-fluoro-benzenesulfonamide]
– | 7.33 | 7.70 | CCOc1ccc(C2CC(CNS(=O)(=O)c3ccccc3F)=NN2c2ccc(Cl)cc2Cl)cc1 (stereo not drawn) [Example 98, N-[1-(2,4-Dichloro-phenyl)-5-(4-ethoxy-phenyl)-4,5-dihydro-1H-pyrazol-3-ylmethyl]-2-fluoro-benzenesulfonafonamide]
– | 7.93 | 8.28 | Cc1ccc(F)cc1S(=O)(=O)NCC1=NN(c2ccc(Cl)cc2Cl)[C@@H](c2ccc(Cl)cc2)[C@H]1C (racemic) [Example 73, cis-(4RS,5RS)-N-[5-(4-Chloro-phenyl)-1-(2,4-dichloro-phenyl)-4-methyl-4,5-dihydro-1H-pyrazol-3-ylmethyl]-5-fluoro-2-methyl-benzenesulfonamide]
– | 8.01 | 8.01 | CCOc1ccc(C2CC(CNS(=O)(=O)c3cccc(F)c3)=NN2c2ccc(Cl)cc2Cl)cc1 (stereo not drawn) [Example 261, N-[1-(2,4-Dichloro-phenyl)-5-(4-ethoxy-phenyl)-4,5-dihydro-1H-pyrazol-3-ylmethyl]-3-fluoro-benzenesulfonamide]
15.9 | – | – | O=S(=O)(CC1CCCCC1)NCC1=NN(c2ccc(Cl)cc2Cl)C(c2ccc(Cl)cc2)C1 (stereo not drawn) [Example 31, N-[5-(4-Chloro-phenyl)-1-(2,4-dichloro-phenyl)-4,5-dihydro-1H-pyrazol-3-ylmethyl]-C-cyclohexyl-methanesulfonamide]
– | 7.82 | 8.16 | O=S(=O)(NCC1=NN(c2ccc(Cl)cc2Cl)C(c2ccc(Cl)cc2)C1)c1cc(C(F)(F)F)ccc1Cl (stereo not drawn) [Example 81, 2-Chloro-N-[5-(4-chloro-phenyl)-1-(2,4-dichloro-phenyl)-4,5-dihydro-1H-pyrazol-3-ylmethyl]-5-trifluoromethyl-benzenesulfonamide]
– | 7.44 | 7.79 | Cc1ccc(C)c(S(=O)(=O)NCC2=NN(c3ccc(Cl)cc3Cl)[C@@H](c3ccc(Cl)cc3)C2)c1 [Example 69, (R)-N-[5-(4-Chloro-phenyl)-1-(2,4-dichloro-phenyl)-4,5-dihydro-1H-pyrazol-3-ylmethyl]-2,5-dimethyl-benzenesulfonamide]
8.2 | – | – | CC(=O)Nc1ccc(S(=O)(=O)NCC2=NN(c3ccc(Cl)cc3Cl)C(c3ccc(Cl)cc3)C2)cc1Cl (stereo not drawn) [Example 41, N-(2-Chloro-4-{[5-(4-chloro-phenyl)-1-(2,4-dichloro-phenyl)-4,5-dihydro-1H-pyrazol-3-ylmethyl]-sulfamoyl}-phenyl)-acetamide]
– | 7.36 | 7.74 | COc1ccc(C2CC(CNS(=O)(=O)c3cc(C)ccc3C)=NN2c2ccc(Cl)cc2Cl)cc1 (stereo not drawn) [Example 97, N-[1-(2,4-Dichloro-phenyl)-5-(4-methoxy-phenyl)-4,5-dihydro-1H-pyrazol-3-ylmethyl]-2,5-dimethyl-benzenesulfonamide]
– | 7.16 | 7.51 | COc1ccc(C2CC(CNS(=O)(=O)c3ccccc3Cl)=NN2c2ccc(Cl)cc2Cl)cc1 (stereo not drawn) [Example 217, 2-Chloro-N-[1-(2,4-dichloro-phenyl)-5-(4-methoxy-phenyl)-4,5-dihydro-1H-pyrazol-3-ylmethyl]-benzenesulfonamide]
– | 7.89 | 8.25 | CCOc1ccc(C2CC(CNS(=O)(=O)c3cc(C(F)(F)F)ccc3Cl)=NN2c2ccc(Cl)cc2Cl)cc1 (stereo not drawn) [Example 101, 2-Chloro-N-[1-(2,4-dichloro-phenyl)-5-(4-ethoxy-phenyl)-4,5-dihydro-1H-pyrazol-3-ylmethyl]-5-trifluoromethyl-benzenesulfonamide]
– | 7.92 | 8.28 | CCOc1ccc(C2CC(CNS(=O)(=O)c3cc(C)ccc3C)=NN2c2ccc(Cl)cc2Cl)cc1 (stereo not drawn) [Example 103, N-[1-(2,4-Dichloro-phenyl)-5-(4-ethoxy-phenyl)-4,5-dihydro-1H-pyrazol-3-ylmethyl]-2,5-dimethyl-benzenesulfonamide]
